Measured values from US20240245696A1, “INHIBITORS OF DNA PK AND USES THEREOF” (BioVentures, LLC, priority 2017, published 2024).
“Also recorded” adds a separate entry of the source.

Experiments:
PBMC = assay: Cell viability assay (CELLTITER 96 AQUEOUS One) in PBMC; type: cell-based, human; details: various concentrations, 48 hours
Method: Cell Culture: Human peripheral blood mononuclear cells (PBMC,) and Jurkat cells were purchased from ATCC (PCS-800-011, Manassas, VA). Cells were maintained at 37° C. in a humidified atmosphere composed of 5% CO2. Jurkat cells were cultured in RPMI 1640 medium which was supplemented with 10% FCS and human PBMC was cultured in RPMI 1640 medium which was supplemented with 10% FCS and pen/strep. Both Jurkat cells and PBMC were stimulated with PHA (50 ng/mL) and PMA (1 μg/mL) for 24 hours prior to harvesting for IL-2 detection or 6 hours prior for western blot analysis. The NU7441 DNA-PKcs inhibitor was added at varying concentrations at the time of stimulation. Cell viability assay: Cell viability assay was performed using Promega CELLTITER 96 AQUEOUS One Solution Cell Proliferation Assay (Madison, WI) and following the manufacturer's protocol. Briefly, 100 μL of PBMC or Jurkat cells were plated in a 96-well plate and treated with various concentration of NU7441 for 48 hours. CELLTITER solution (20 μL/100 μL of cell suspension) was added to the cells and the plate was incubated for 3 hours at 37° C. and the absorbance at 490 nm was recorded using SynergyHTX (BioTek, Winooski, VT) plate reader.

IL-2 = assay: Secreted IL-2 ELISA, Jurkat cells stimulated with PMA+PHA; type: cell-based, human; details: for level of IL-2: PMA+PHA 24 hour stimulation
Method: Cell Culture: Human peripheral blood mononuclear cells (PBMC,) and Jurkat cells were purchased from ATCC (PCS-800-011, Manassas, VA). Cells were maintained at 37° C. in a humidified atmosphere composed of 5% CO2. Jurkat cells were cultured in RPMI 1640 medium which was supplemented with 10% FCS and human PBMC was cultured in RPMI 1640 medium which was supplemented with 10% FCS and pen/strep. […] The NU7441 DNA-PKcs inhibitor was added at varying concentrations at the time of stimulation.
Detection of secreted IL-2: Secreted IL-2 was detected by Human IL-2 ELISA Kit from Thermo Scientific (Waltham, MA). The manufacturer's protocol was followed. […] Jurkat cells stimulated with the anti-CD28/CD3 dynabeads were done so according to the manufacturer's protocol at a 1:1 ratio for 24 hours prior to harvesting. After stimulation, supernatant samples of Jurkat cells or PBMCs (2 million cells/mL) were collected and diluted 10 times before the assay. IL-2 standards and samples (50 μL) and Biotinylated antibody reagents (50 μL) were added to each well and the plate was incubated for 3 hours at room temperature. The plate was washed 3 times and 100 μL of Streptavidin-HRP solution was added. After 30 minutes of incubation at room temperature, the plate was washed 3 times. TMB substrate (100 μL) was added and incubated for 30 minutes in the dark at room temperature. Stop solution was added and the absorbance of each well was read at 450 nm using the plate reader.

O=c1cc(N2CCOCC2)oc2c(-c3cccc4c3sc3ccccc34)cccc12 [NU7441]
cellular viability of PBMC (PBMC): did not affect cellular viability; also recorded: does not reduce cell viability | IL-2 secretion (IL-2; PMA (50 ng/ml)+PHA (1 μg/mL), 24 hours, concentration not stated (FIG. 1B)): significantly blocked IL-2 secretion | level of IL-2 (IL-2; 2.5 µM NU7441): significantly decreased | level of IL-2 (IL-2; 5 μM NU7441): further decreased
